# What was measured:
# Assay type in all cases: cell-based, human
# [1] = tested on: CD4+ T-cell clone (PAPc66); assay: Antigen specificity of T cell clone PAPc66 with autologous EBV-LcL, IFNγ ELISA
# Experimental: FIG. 1. T cell clone PAPc66 recognizes a naturally processed epitope from PAP. (A) PAP fusion proteins PA2024, CHOPA2024 and hPAPGM and PAP from a baculoviral expression system (iPAP) and mammalian expression system (CHOPAP) were titrated with autologous EBV-LcL and PAPc66. Assay was set up in 96 well round bottom plates with 1×10^5 cells/well of PAPc66, 2×10^5 cells/well EBV-LcL and antigens at 50 μg/mL (black bars), 25 μg/mL (stripe bars) and 12.5 μg/mL (dot bars) in complete RPMI media with 10% FBS. Assay was incubated for 48 hours at 37° C. with 5% CO2 at which time supernatants were harvested and tested for IFNγ by ELISA. (B) To map the specific PAP peptide, chemically synthesized peptides from the PAP sequence were used. These 94 peptides were 15 amino acids in length overlapping by 11 amino acids and were individually tested for the ability to stimulate PAPc66 using autologous EBV-LcL and each peptide at 2 μg/mL in the assay. The assay was set up as in (A) and supernatants were tested for IFNγ by ELISA. […] Supernatants were analyzed for peptide specific IFNγ production by ELISA. […]
# (§1) IFN[…] production was measured using anti-human IFNγ antibody pairs for ELISA (BD Pharmingen, San Diego, Calif.). […] 2M HCl was added to stop the reaction and plates were read for absorbance at 492 nm on a spectrophotometer. […]
# [2] = tested on: CD4+ T-cell clone (PAPc66); assay: MHC Class II blocking assay with autologous EBV-LcL, IFNγ ELISA; settings: peptide at 2 μg/mL, 48 hours
# Experimental: FIG. 2. PAPc661 is MHC class II restricted. PAPc66 was stimulated with autologous EBV-LcL at 2×10^5 cells/mL and PAP257-271 at 2 μg/mL in the presence of MHC Class II blocking antibodies. The assay was set up in 96 well round bottom plates in complete RPMI media +10% FBS with anti-HLA-DR ♦ (Dendreon) and anti-HLA-DP ▪ or anti HLA-DQ ▴ (Leinco Technologies, Inc., St. Louis, […].) at the concentrations shown. Anti-HLA-A2 antibody (∘) was used as a negative control. PAPc66 was added to all wells at 1×10^5 cells/well and the assay was incubated for 48 hours at 37° C. and 5% CO2. After the incubation, supernatants were harvested and tested for IFNγ by ELISA. IFNγ was not detected for conditions without peptide.
# All assays were set up in triplicate in 96-well round bottom plates with antigen or peptide in cRPMI 1640+10% FBS (Fetal Bovine Serum (Invitrogen, Carlsbad, Calif.)), T cell clones at 1×10^5 cells/well and antigen presenting cells at 2×10^5 cells/well. Autologous EBV-LcL were used for antigen presenting cells in specificity assays and assays conducted to show peptide promiscuity using the HLA-DRB1 EBV-LcLs. All assays were incubated for 48 hours at 37° C. with 5% CO2. […]
# as §1
# [3] = tested on: CD4+ T-cell clone (PAPc66); assay: Peptide promiscuity assay: HLA-DRβ1 homozygous EBV-LcL lines present the peptide to PAPc66, IFNγ and granzyme B measured by ELISA
# Source text: FIG. 3. PAP257-271 is a promiscuous MHC class II PAP epitope recognized by the T cell clone PAPc66. (A) The peptide, PAP257-271 (RLQGGVLVNNEILNHM; SEQ ID NO:1), recognized by a CD4+ T-cell clone (PAPc66) in the context of MHC class II, is capable of inducing T-cell activation when presented by lymphoblastoid cell lines representing 9 different HLA-DR serological families (β chain; DR1, DR4, DR7, DR8, DR11, DR12, DR13, DR14, DR15) having over 15 distinct HLA-DRβ1 alleles. […] The assay was set up in 96 well round bottom plates with PAPc66 at 1×10^5 cells/well, PAP257-271 at 2 μg/mL and 2×10^5 EBV-LcL per well in complete RPMI+10% FBS. Each HLA-DR[…]EBV-LcL line, homozygous for the HLA-DRβ1 allele shown, was tested for the ability to present PAP257-271 to PAPc66. An irrelevant PAP peptide and no peptide control were also included. After 48-hour incubation at 37° C. and 5% CO2, supernatants were tested for IFNγ and granzyme B (B) by ELISA. Results are shown with background (no peptide) for each EBV-LcL line and PAPc66 subtracted.
# HLA-DRβ1 EBV-LcL lines were purchased from the European Collection of Cell Cultures originating from the 12th International Histocompatibility Workshop (IHW) held in Strasbourg, France. HLA-DR EBV-transformed lymphoblastoid cells were homozygous for the HLA-DRβ1 allele (Table I). EBV-LcL were also generated from various subject PBMC using supernatant from the B95-8 cell line (ATCC, Manassas, Va.) for the expansion and testing of autologous T cell clones.
# All assays were set up in triplicate in 96-well round bottom plates with antigen or peptide in cRPMI 1640+10% FBS (Fetal Bovine Serum (Invitrogen, Carlsbad, Calif.)), T cell clones at 1×10^5 cells/well and antigen presenting cells at 2×10^5 cells/well. […]
# as §1
sequence,measurement,setting,value
"RLQGGVLVNEILNHM (residues 257-271 of human prostatic acid phosphatase (PAP), PAP epitope 257-271, Peptide #65, PAP-257-271) [PAP257-271, peptide corresponding to residues 257-271 of the human PAP protein]",nature of the epitope recognized by PAPc66 (summary of FIGS. 1-3),[1],"naturally processed, MHC class II-restricted promiscuous epitope"
same,"MHC class II restriction of presentation (blocking antibodies anti-HLA-DR, -DP, -DQ)",[2],presented both in the context of HLA-DR and HLA-DQ
same,cytokine production by clone PAPc66 upon activation with the presented peptide,[3]; IFNγ and granzyme B ELISA of supernatants,produce IFNγ and granzyme B upon activation
same,number of distinct HLA-DRβ1 alleles presenting the peptide with T-cell activation,"[3]; peptide at 2 μg/mL, 48 hours, EBV-LcL homozygous for the HLA-DRβ1 allele",over 15
same,number of different HLA-DR serological families whose lymphoblastoid cell lines present the peptide and induce T-cell activation,"[3]; peptide at 2 μg/mL, 48 hours, PAPc66 1×10^5 cells/well, 2×10^5 EBV-LcL per well",9
